Results as given in patent US6310037A, “Method of controlling protozoan infections using syringomycin-family lipodepsipeptides” (Utah State University, priority 1999, dated 2001).
In brackets after ≈: the same amount, converted by molar mass. Several values for one entry are separate records, joined by “and”; a condition that tells them apart may be missing. Equal entries are not always repeated. Where two headings read alike, the source gives them in different places. Where a SMILES comes first, the peptide text is derived from it. Bridges are numbered along the chain shown (N, C = ends). [ ]: non-standard residue; d: D form. The star is where a group is joined. Asp(3S-OH) = N[C@H](C(=O)O)[C@H](O)C(=O)O; Thr(4-Cl) = N[C@H](C(=O)O)[C@H](O)CCl; X1 = CCCCCCCCC[C@@H](O)CC(=O)*; dDab = NCC[C@@H](N)C(=O)O; Dab = NCC[C@H](N)C(=O)O; Dhb = C/C=C(\N)C(=O)O

Legend:
C. parvum [1] = format: cell-based, C. parvum (bovine isolate); conditions: MDBK cells, day 2 post inoculation
C. parvum [2] = format: cell-based, C. parvum (bovine isolate); conditions: MDBK cells; for Infection % (Day 5) / Infection % (Day 2): % of untreated control; for Infection % (Day 2): mean ± SEM
Description: C. parvum (bovine isolate) oocysts used in this study were originally donated by the U.S. Department of Agriculture, Ames, Iowa. The oocysts were isolated from calf manure, preserved in 2.5% potassium dichromate at 4° C., and used within 3 months of purification. Oocysts were decontaminated by suspension in 20% (vol/vol) 1.05% sodium hypochlorite on ice for 20 minutes. Oocysts were then washed three times in Hanks' balanced salt solution ("HBSS") and once in RPMI 1640 (available from Sigma, St. Louis, Mo.). Release of sporozoites was achieved by incubating oocysts in an excystation solution consisting of 0.25% (wt/vol) trypsin (available from Sigma, St. Louis, Mo.) and 0.75% (wt/vol) taurodeoxycholic acid (available from Sigma) in HBSS. The resulting suspension was incubated at 37° C. for 45 minutes and microscopically observed to confirm sporozoite release. Sporozoites were completely separated from intact oocysts and oocyst walls by passage through sterile polycarbonate filters (3 micron pore size, available from Millipore Corp., Bedford, Mass.) twice prior to inoculation of bovine fallopian tube epithelial ("BFTE") cell monolayers.
Coverslips were removed at 5, 24, 48, 72, 96, and 120 hours from the inoculated wells containing monolayers of BFTE cells. The coverslips were washed in RPMI 1640, fixed in 100% methanol for 10 minutes, rinsed twice with 25 mM PBS, and stained with an indirect immunofluorescent assay (IFA) using monoclonal antibody (Mab) 5H11. Mab 5H11 specifically reacts with an antigen present on intermediate stages of C. parvum development. Coverslips were then mounted on glass slides and examined under oil immersion (1000×), using […] microscopy. Parasites were enumerated by counting all developmental stages of C. parvum present in a single scan (67 fields) through the center of each coverslip. The data were statistically compared for significance, using analysis of variance (Fischer's protected least-significant-difference test using a "STATVIEW" statistical analysis application developed by Abacus Concepts, Inc., Berkeley, Calif.).
Madin-Darby bovine kidney (MDBK) epithelial cells were also used to culture C. parvum in this study. Dulbecco's modified Eagle medium (DMEM) with 10% FBS was used for routine passage of MDBK cells purchased from American Type Collection for Culture (Rockville, Md.). Mycoplasma contamination was periodically checked with Hoechst staining (Uphoff et al., 1992). At confluence, MDBK cells were lifted from culture flasks with trypsin, enumerated, and redistributed to assay plates. Ninety-six well cell culture plates were employed to assess cytotoxicity of testing agents or the parasite or both to host cells using neutral red staining or lactic dehydrogenase (LDH) assay.
For enumeration of C. parvum development in culture, 24-well plates were used with a sterile glass coverslip placed in each well. DMEM base was used at and post C. parvum inoculation.
A single concentration of Syr-E at 15 μg/ml was used to treat MDBK cells at pH 7 with C. parvum infection. Group 1 served as an infection control, receiving no Syr-E treatment. Syr-E was administered 1 day prior to parasite inoculation to groups 2, 4, and 5, at the inoculation day to groups 3-5, and 1 day post inoculation to groups 3 and 5, respectively. Following specified administration day(s), supernatants of corresponding wells containing Syr-E were removed and replaced with fresh DMEM base. Cytotoxicity was monitored using lactic dehydrogenase (LDH) assay on day 1 post inoculation. Three coverslips from each group were collected on days 2 and 5 post inoculation, were fixed, and were stained with the specific IFA, as described with reference to Example II.
Therefore, MDBK cells were employed to explore the inhibitory effect of Syr-E on C. parvum development in vitro, as shown in FIG. 3. […]

P. falciparum D6 = format: cell-based; conditions: D6 isolate, pH 7.0, 66 hour incubation
From the text: P. falciparum used in this study were two well characterized clones, W2 and D6, as described in Oduola, A. M. et al., Plasmodium falciparum: cloning by single-erythrocyte micromanipulation and heterogeneity in vitro; Exp. Parasitol. 66, 86-95 (1988), the contents of which are incorporated herein by this reference. W2 is a clone of the Indochina I isolate and is resistant to chloroquine and pyrimethamine, but susceptible to mefloquine. D6 is a clone from the Sierra I/UNC isolate and is susceptible to chloroquine and pyrimethamine, but has reduced susceptibilities to mefloquine and halofantrine.
The susceptibility of P. falciparum to Syr-E was studied using a modified antimalarial drug susceptibility screen following the procedures published by Desjardins et al., Quantitative assessment of antimalarial activity in vitro by semiautomated microdilution technique (1979), with modifications developed by Milhous et al., In vitro strategies for circumventing antimalarial drug resistance, Prog. […]
Syr-E was dissolved directly in dimethylsulfoxide (DMSO) and diluted 400 fold with complete culture media and started at a highest concentration of 50,000 ng/ml. […] The filter mats were then counted in a scintillation counter and the data downloaded with custom, automated analysis software (developed at the Walter Reed Army Institute of Research). […]

[3] = Group 2: Syr-E 15 μg/ml, 1 day, prior to inoculation, pH 7
[4] = Group 3: Syr-E 15 μg/ml, 2 days, at and post inoculation, pH 7
[5] = Group 4: Syr-E 15 μg/ml, 2 days, prior to and at inoculation, pH 7
[6] = Group 5: Syr-E 15 μg/ml, 3 days, prior to, at, and post inoculation, pH 7

C/C=C1\NC(=O)[C@H](Cc2ccccc2)NC(=O)[C@H](CCCNC(=N)N)NC(=O)[C@H](CCN)NC(=O)[C@@H](CCN)NC(=O)[C@@H](CO)NC(=O)[C@@H](NC(=O)C[C@H](O)CCCCCCCCC)COC(=O)[C@H]([C@H](O)CCl)NC(=O)[C@H]([C@H](O)C(=O)O)NC1=O [Syr-E, Syringomycin-E] (X1-S[dS][dDab][Dab]RF[Dhb][Asp(3S-OH)][Thr(4-Cl)]; ester 1-C)
infection percentage compared to the untreated control (C. parvum [1]; Syr-E 5.0 μg/ml): significantly (P<0.05) reduced the infection percentage
inhibition of parasite growth and development (C. parvum [1]; Syr-E 20 μg/ml): 99.5%
Infection % (Day 5) (C. parvum [2]; [3]): 22% and 21.9%
Infection % (Day 2) (C. parvum [2]; [3]): 13% and 12.9 ± 2.7%
Infection % (Day 5) (C. parvum [2]; [4]): 11.7%
Infection % (Day 2) (C. parvum [2]; [4]): 10.2 ± 2.1%
Infection % (Day 5) (C. parvum [2]; [5]): 1.4%
Infection % (Day 2) (C. parvum [2]; [5]): 1.1 ± 0.2%
Infection % (Day 5) (C. parvum [2]; [6]): 1.0%
Infection % (Day 2) (C. parvum [2]; [6]): 0.9 ± 0.1%
infection percentage of the untreated control (C. parvum [2]; Syr-E 15 μg/ml, day 5 post inoculation): 14.7%
infection percentage (C. parvum [2]; Syr-E 15 μg/ml, treatment prior to and at the inoculation, pH 7, day not given): approximately 1%
IC50 (P. falciparum D6): 3.03 µg/mL (≈ 2.47 µM)
